Experimental data as given in ChEMBL document CHEMBL3286094, “Synthesis and biological evaluation of novel bisbenzimidazoles as Escherichia coli topoisomerase IA inhibitors and potential antibacterial agents” (J Med Chem, 2014).
Values after ≈ are worked out from the molar mass of the structure shown. Active and inactive are the calls of the source. The calls are words filed in the database; no cut-off is given here.

Key:
[1] = tested on: Escherichia coli; assay: Antibacterial activity against ampicillin/ciprofloxacin/gentamicin/tetracycline-resistant Escherichia coli 555 assessed as growth inhibition after 18 to 24 hrs by broth microdilution method; assay type: functional
[2] = tested on: Escherichia coli; assay: Bactericidal activity against ciprofloxacin-resistant Escherichia coli 72 by agar plating method; assay type: functional
[3] = tested on: Escherichia coli; assay: Bactericidal activity against ampicillin/trimethoprim/nalidixic acid-resistant Escherichia coli 118 by agar plating method; assay type: functional
[4] = tested on: Escherichia coli; assay: Bactericidal activity against ampicillin/tetracycline/gentamicin-resistant Escherichia coli 451 by agar plating method; assay type: functional
[5] = tested on: Escherichia coli; assay: Bactericidal activity against chloramphenicol/ampicillin/trimethoprim/ciprofloxacin/nalidixic acid-resistant Escherichia coli 59 by agar plating method; assay type: functional
[6] = tested on: Escherichia coli; assay: Bactericidal activity against ampicillin/kanamycin/trimethoprim/tetracyclin/ciprofloxacin/nalidixic acid-resistant Escherichia coli 81 by agar plating method; assay type: functional
[7] = tested on: Escherichia coli; assay: Bactericidal activity against chloramphenicol/ampicillin/kanamycin/trimethoprim/ciprofloxacin/nalidixic acid-resistant Escherichia coli 132 by agar plating method; assay type: functional
[8] = tested on: Escherichia coli; assay: Bactericidal activity against chloramphenicol/ampicillin/kanamycin/trimethoprim/ciprofloxacin/nalidixic acid-resistant Escherichia coli 151 by agar plating method; assay type: functional
[9] = tested on: Escherichia coli; assay: Bactericidal activity against ampicillin/chloramphenicol/ciprofloxacin/gentamicin/tetracycline-resistant Escherichia coli 401 by agar plating method; assay type: functional
[10] = tested on: Escherichia coli; assay: Bactericidal activity against ampicillin/ciprofloxacin/gentamicin/tetracycline-resistant Escherichia coli 555 by agar plating method; assay type: functional
[11] = tested on: Escherichia coli; assay: Inhibition of Escherichia coli DNA gyrase using relaxed pHOT1 plasmid DNA as substrate assessed as inhibition of DNA supercoiling up to 100 uM after 30 mins by agarose gel electrophoresis
[12] = organism: Homo sapiens; assay: Inhibition of human DNA topoisomerase-1B using supercoiled pHOT1 plasmid DNA as substrate assessed as inhibition of DNA relaxation at 100 uM after 30 mins by agarose gel electrophoresis
[13] = tested on: Escherichia coli; assay: Antibacterial activity against Escherichia coli ATCC 25922 assessed as growth inhibition after 18 to 24 hrs by broth microdilution method; assay type: functional
[14] = tested on: Escherichia coli; assay: Bactericidal activity against Escherichia coli DH5[alpha] by agar plating method; assay type: functional
[15] = tested on: Escherichia coli; assay: Bactericidal activity against Escherichia coli ATCC 25922 by agar plating method; assay type: functional
[16] = tested on: Escherichia coli; assay: Antibacterial activity against ampicillin/trimethoprim/nalidixic acid-resistant Escherichia coli 118 assessed as growth inhibition after 18 to 24 hrs by broth microdilution method; assay type: functional
[17] = tested on: Escherichia coli; assay: Antibacterial activity against chloroamphenicol/ampicillin/kanamycin/trimethoprim/ciprofloxacin/nalidixic acid-resistant Escherichia coli 85 assessed as growth inhibition after 18 to 24 hrs by broth microdilution method; assay type: functional
[18] = tested on: Escherichia coli; assay: Antibacterial activity against gentamicin/kanamycin/tetracycline/nalidixic acid-resistant Escherichia coli 360 assessed as growth inhibition after 18 to 24 hrs by broth microdilution method; assay type: functional
[19] = tested on: Escherichia coli; assay: Antibacterial activity against ampicillin/tetracycline/gentamicin-resistant Escherichia coli 451 assessed as growth inhibition after 18 to 24 hrs by broth microdilution method; assay type: functional
[20] = tested on: Escherichia coli; assay: Antibacterial activity against chloramphenicol/ampicillin/trimethoprim/ciprofloxacin/nalidixic acid-resistant Escherichia coli 59 assessed as growth inhibition after 18 to 24 hrs by broth microdilution method; assay type: functional
[21] = tested on: Escherichia coli; assay: Antibacterial activity against chloramphenicol/ampicillin/kanamycin/trimethoprim/ciprofloxacin/nalidixic acid-resistant Escherichia coli 132 assessed as growth inhibition after 18 to 24 hrs by broth microdilution method; assay type: functional
[22] = tested on: Escherichia coli; assay: Antibacterial activity against chloramphenicol/ampicillin/kanamycin/trimethoprim/ciprofloxacin/nalidixic acid-resistant Escherichia coli 151 assessed as growth inhibition after 18 to 24 hrs by broth microdilution method; assay type: functional
[23] = tested on: Escherichia coli; assay: Bactericidal activity against multidrug-resistant Escherichia coli IS 54 isolated from water source by agar plating method; details: IS 54, Water
[24] = tested on: Escherichia coli; assay: Bactericidal activity against ampicillin/tetracycline-resistant Escherichia coli IP18 isolated from water source by agar plating method
[25] = tested on: Escherichia coli; assay: Bactericidal activity against ampicillin/trimethoprim/piperacillin-resistant Escherichia coli MKNJ isolated from water source by agar plating method
[26] = tested on: Escherichia coli; assay: Bactericidal activity against ampicillin/chloramphenicol/tetracycline/trimethoprim/ciprofloxacin-resistant Escherichia coli KK45 isolated from water source by agar plating method
[27] = tested on: Escherichia coli; assay: Antibacterial activity against multidrug-resistant Escherichia coli IS 54 isolated from water source assessed as growth inhibition after 18 to 24 hrs by broth microdilution method; details: IS 54, Water
[28] = tested on: Escherichia coli; assay: Antibacterial activity against ampicillin/tetracycline-resistant Escherichia coli IP18 isolated from water source assessed as growth inhibition after 18 to 24 hrs by broth microdilution method
[29] = tested on: Escherichia coli; assay: Antibacterial activity against tetracycline/trimethoprim-resistant Escherichia coli IST isolated from water source assessed as growth inhibition after 18 to 24 hrs by broth microdilution method
[30] = tested on: Escherichia coli; assay: Bactericidal activity against ampicillin/trimethoprim/cefazolinl/piperacillin/cefuroxime/cefoxitine/cefepime/cefotaxime-resistant Escherichia coli KP21 isolated from water source by agar plating method
[31] = tested on: Escherichia coli; assay: Bactericidal activity against cefazolinl/ampicillin/piperacillin/cefuroxime/cefepime/cefotaxime/tetracycline/trimethoprim-resistant Escherichia coli KK16 isolated from water source by agar plating method
[32] = tested on: Escherichia coli; assay: Antibacterial activity against ampicillin/tetracycline/piperacillin-resistant Escherichia coli WB31 isolated from water source assessed as growth inhibition after 18 to 24 hrs by broth microdilution method
[33] = tested on: Escherichia coli; assay: Antibacterial activity against ampicillin/trimethoprim/piperacillin-resistant Escherichia coli MKNJ isolated from water source assessed as growth inhibition after 18 to 24 hrs by broth microdilution method
[34] = tested on: Escherichia coli; assay: Antibacterial activity against ampicillin/chloramphenicol/tetracycline/trimethoprim/ciprofloxacin-resistant Escherichia coli KK45 isolated from water source assessed as growth inhibition after 18 to 24 hrs by broth microdilution method
[35] = tested on: Escherichia coli; assay: Antibacterial activity against ampicillin/trimethoprim/cefazolinl/piperacillin/cefuroxime/cefoxitine/cefepime/cefotaxime-resistant Escherichia coli KP21 isolated from water source assessed as growth inhibition after 18 to 24 hrs by broth microdilution method
[36] = tested on: Escherichia coli; assay: Antibacterial activity against cefazolinl/ampicillin/piperacillin/cefuroxime/cefepime/cefotaxime/tetracycline/ciprofloxacin-resistant Escherichia coli NG3 isolated from water source assessed as growth inhibition after 18 to 24 hrs by broth microdilution method

CCOc1ccc(-c2nc3ccc(-c4nc5ccc(N6CCN(CCN(C)C)CC6)cc5[nH]4)cc3[nH]2)cc1
MIC50 [1]: 32 µg/mL (≈ 62.8 µM)
MIC90 [1]: 60.4 µg/mL (≈ 119 µM)
MBC [2]: 64 µg/mL (≈ 126 µM)
MBC [3]: 16 µg/mL (≈ 31.4 µM)
MBC [4]: 64 µg/mL (≈ 126 µM)
MBC [5]: 32 µg/mL (≈ 62.8 µM)
MBC [6]: 64 µg/mL (≈ 126 µM)
MBC [7]: 128 µg/mL (≈ 251 µM)
MBC [8]: 64 µg/mL (≈ 126 µM)
MBC [9]: 32 µg/mL (≈ 62.8 µM)
MBC [10]: 64 µg/mL (≈ 126 µM)
inhibition [11]: inactive
inhibition [12]: inactive
MIC50 [13]: 8 µg/mL (≈ 15.7 µM)
MIC90 [13]: 26.6 µg/mL (≈ 52.2 µM)
MBC [14]: 2 µg/mL (≈ 3.92 µM)
MBC [15]: 16 µg/mL (≈ 31.4 µM)
MIC50 [16]: 8 µg/mL (≈ 15.7 µM)
MIC90 [16]: 15.2 µg/mL (≈ 29.8 µM)
MIC50 [17]: 16 µg/mL (≈ 31.4 µM)
MIC90 [17]: 28.6 µg/mL (≈ 56.1 µM)
MIC50 [18]: 64 µg/mL (≈ 126 µM)
MIC90 [18]: 121 µg/mL (≈ 237 µM)
MIC50 [19]: 32 µg/mL (≈ 62.8 µM)
MIC90 [19]: 55.3 µg/mL (≈ 109 µM)
MIC50 [20]: 16 µg/mL (≈ 31.4 µM)
MIC90 [20]: 28.8 µg/mL (≈ 56.5 µM)
MIC50 [21]: 64 µg/mL (≈ 126 µM)
MIC90 [21]: 123 µg/mL (≈ 241 µM)
MIC50 [22]: 32 µg/mL (≈ 62.8 µM)
MIC90 [22]: 61.6 µg/mL (≈ 121 µM)
MBC [23]: 64 µg/mL (≈ 126 µM)
MBC [24]: 32 µg/mL (≈ 62.8 µM)
MBC [25]: 32 µg/mL (≈ 62.8 µM)
MBC [26]: 32 µg/mL (≈ 62.8 µM)
MIC50 [27]: 32 µg/mL (≈ 62.8 µM)
MIC90 [27]: 60.6 µg/mL (≈ 119 µM)
MIC50 [28]: 16 µg/mL (≈ 31.4 µM)
MIC90 [28]: 30.6 µg/mL (≈ 60 µM)
MIC50 [29]: 32 µg/mL (≈ 62.8 µM)
MIC90 [29]: 60.6 µg/mL (≈ 119 µM)
MBC [30]: 64 µg/mL (≈ 126 µM)
MBC [31]: 32 µg/mL (≈ 62.8 µM)
MIC50 [32]: 16 µg/mL (≈ 31.4 µM)
MIC90 [32]: 29.4 µg/mL (≈ 57.7 µM)
MIC50 [33]: 16 µg/mL (≈ 31.4 µM)
MIC90 [33]: 30.6 µg/mL (≈ 60 µM)
MIC50 [34]: 16 µg/mL (≈ 31.4 µM)
MIC90 [34]: 29.4 µg/mL (≈ 57.7 µM)
MIC50 [35]: 32 µg/mL (≈ 62.8 µM)
MIC90 [35]: 61.4 µg/mL (≈ 120 µM)
MIC50 [36]: 8 µg/mL (≈ 15.7 µM)
MIC90 [36]: 15 µg/mL (≈ 29.4 µM)
